From publication PMC9457600, “Synthesis, Leishmanicidal, Trypanocidal, Antiproliferative Assay and Apoptotic Induction of (2-Phenoxypyridin-3-yl)naphthalene-1(2H)-one Derivatives” (Molecules, 2022)

Key:
[1] = system: promastigotes of Leishmania (V.) braziliensis strain MHOM/CO/87/UA301; assay: MTT viability of L. braziliensis promastigotes; assay type: cell-based;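 note: promastigote proliferation in 96-well plates, MTT reduction read at 570 nm, EC50 derived from growth curves, cytotoxicity CC50 likewise by MTT in BMDM and VERO cells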
Experimental: Promastigotes of Leishmania (V.) braziliensis strain MHOM/CO/87/UA301 were isolated from footpad lesions in Balb/C mice previously infected. In the process of maintenance and differentiation of the parasites, the LTI medium (tryptose 15 g/L, yeast extract 5 g/L, liver extract 2 g/L, hemin-NaOH 0.02 g/L, glucose 4 g/L, NaCl 9 g/L, KCl 0.4 g/L Na2HPO4, 7.5 g/L at pH 7.4) supplemented with 10% fetal calf serum and maintained at 29 °C was used.
Briefly, 96-well plates were used, where 2 × 10^6 parasites/mL were seeded. A concentration of 50 μM was used for each compound and an incubation time of 96 h at 29 °C. 3-(4,5-dimethylthiazol-2-yl)-2,5-diphenyl tetrazolium bromide (MTT) 1 μg/mL was added and incubated in darkness for 4 h, acidic isopropanol (4N) was added and the plate was read at 570 nm in a spectrophotometer Synergy HT (Biotek). Miltefosine was used as a reference drug. The EC50 calculation of the selected compound was performed using growth curves. Direct counting was used to monitor the proliferation of parasites, three independent experiments were performed for each concentration of the compounds evaluated. The in vitro evaluations of compounds toxicity by MTT in VERO and BMDM cells follow a methodology described above with some modifications [60].

[2] = system: epimastigotes of Trypanosoma cruzi strain MHOM/VE/92/YBM; assay: MTT viability of T. cruzi epimastigotes; assay type: cell-based; conditions: Trypanosoma cruzi, 72 h, epimastigotes
CCRF-CEM = assay: MTS antiproliferative assay CCRF-CEM; assay type: cell-based; conditions: Homo sapiens, 72 h of incubation
Excerpt: (§1) The cell lines used were acquired from the American Type Culture Collection (ATCC), CCRF-CEM (T lymphoblastic leukemia), K562 ([…]), U2OS (osteosarcoma), HCT116 (colon carcinoma), A549 (lung adenocarcinoma) and HCT116p53−/− (HCT116 cell line mutated in p53) Horizon Discovery Ltd., (Waterbeach, Cambridge, United Kingdom).
(§2) In our laboratory, IMTM, we generated the daunorubicin-resistant subline of CCRF-CEM cells (CEM-DNR bulk) and paclitaxel-resistant subline K562-TAX, as described previously. […] Both ABC transporters are involved in drug resistance. As a control, human fibroblasts MRC-5 and BJ cell lines were used. […] Adherent cells were passaged using PBS containing 0.25% trypsin plus 0.01% EDTA (ethylenediamine tetraacetic acid) every 2–3 days.
(§3) The antiproliferative activity of compounds was determined using a standard 3-(4,5-dimethylthiazol-2yl)-5-(3-carboxymethoxyphenyl)-2-(4-sulfophenyl)-2H-tetrazolium (MTS) reduction assay on a robotic high throughput screening platform (HighResBio, Boston, MA, USA) following treatment of cells for 3–7 days. The IC50 values were calculated from the appropriate dose–response curves with Dotmatics software (San Diego, CA, USA).

CEM-DNR = assay: MTS antiproliferative assay CEM-DNR; assay type: cell-based; conditions: Homo sapiens, 72 h of incubation, daunorubicin-resistant
Excerpt: as §1, §2, §3

K562 = assay: MTS antiproliferative assay K562; assay type: cell-based, human; conditions: for IC50: 72 h of incubation; for times higher cytotoxicity against K562 than K562-TAX: ratio of IC50 values
Excerpt: as §1, §2, §3

K562-TAX = assay: MTS antiproliferative assay K562-TAX; assay type: cell-based, human; conditions: 72 h of incubation, paclitaxel-resistant
Excerpt: as §1, §2, §3

A549 = assay: MTS antiproliferative assay A549; assay type: cell-based, human; conditions: 72 h of incubation
Excerpt: as §1, §2, §3

HCT-116 = assay: MTS antiproliferative assay HCT116; assay type: cell-based; conditions: Homo sapiens, 72 h of incubation
Excerpt: as §1, §2, §3

HCT116p53−/− = assay: MTS antiproliferative assay HCT116p53-/-; assay type: cell-based; conditions: Homo sapiens; 72 h of incubation
Excerpt: as §1, §2, §3

U2OS = assay: MTS antiproliferative assay U2OS; assay type: cell-based; conditions: Homo sapiens, 72 h of incubation
Excerpt: as §1, §2, §3

MRC-5 = assay: MTS assay on non-malignant MRC-5; assay type: cell-based; conditions: MRC5; noncancerous human cell line
Experimental: as §2, §3

BJ = assay: MTS assay on non-malignant BJ; assay type: cell-based; conditions: noncancerous human cell line
Experimental: as §2, §3

K562 cell line = assay: Annexin V-FITC/PI flow cytometry apoptosis assay K562; assay type: cell-based, human; conditions: 24 h
Experimental: (§4) Cell death was assessed after 24 h incubation with compounds 18 and 22. Apoptosis was analyzed by flow cytometry using annexin V-FITC and propidium iodide (PI). Early apoptosis was defined by annexin V-FITC expression and, necrosis by PI expression, late apoptosis by coexpression of annexin V/PI. Doxorubicin and quercetin were used as positive controls. The results of a typical flow cytometry analysis of both compounds are illustrated in Figure 2 and Figure 3. An increase in early apoptosis and late apoptosis was observed; necrosis was less predominant. The results are summarized in Tables S1 and S2 (Supplementary Materials). The expression of annexin V was different depending on the compound used. K562, A549 cell lines were treated as described by the manufacturer (Santa Cruz Biotechnology), washed, and resuspended in annexin V binding buffer (0.01 M HEPES, 0.14 M NaCl, and 2.5 mM CaCl2) with the subsequent incubation of annexinV-FITC and then PI. An Epics XL cytometer (Beckman Coulter, Indianapolis, IN, USA) was used for the analysis. Untreated cells were the negative controls, and doxorubicin (Dox) (1 μM), and quercetin (QC) (50 μM) were the positive controls. Early apoptosis refers to annexin V expression, late apoptosis, the coexpression of annexin V and PI, and necrosis the sole expression of PI. […] The experiments were performed as described before. To avoid the unwanted effects of DMSO, the concentrations of the compounds were never higher than 100 μM.

A549 cell line = assay: Annexin V-FITC/PI flow cytometry apoptosis assay A549; assay type: cell-based, human; conditions: 24 h
Experimental: as §4

Row | EC50 [2] | IC50 (CCRF-CEM) | IC50 (K562; Homo sapiens, K562, 72 h) | IC50 (K562-TAX; Homo sapiens, K562-Tax, 72 h) | IC50 (A549; Homo sapiens, A549, 72 h) | IC50 (HCT-116) | IC50 (HCT116p53−/−) | IC50 (U2OS) | melting point | Compound | EC50 ([1]; 72 h, promastigotes) | IC50 (CEM-DNR) | IC50 (MRC-5) | IC50 (BJ) | further results
1 | > 100 µM | 6.7 ± 0.98 µM | 22.4 ± 2.3 µM | 32.9 ± 3.19 µM | 28.1 ± 4.86 µM | 26.4 ± 1.58 µM | 26.9 ± 3.49 µM | 23.2 ± 1.9 µM |  | O=C1/C(=C/c2cccnc2Oc2ccc(F)cc2)CCc2ccccc21 [Compound 12, (E)-2-{[2-(4-Fluorophenoxy)pyridin-3-yl]methylene}-3,4-dihydronaphthalen-1(2H)-one] | > 100 µM | 35.6 ± 4.42 µM | > 50 µM | > 50 µM | 
2 | > 100 µM | 6.07 ± 0.59 µM | 23.4 ± 2.31 µM | 39.3 ± 5.4 µM | 28.4 ± 2.14 µM | 27.2 ± 2.44 µM | 23.5 ± 1.5 µM | 21 ± 2.21 µM | 154 to 156 °C | COc1cccc2c1CC/C(=C\c1cccnc1Oc1ccc(F)cc1)C2=O [Compound 13, (E)-2-{[2-(4-Fluorophenoxy)pyridin-3-yl]methylene}-3,4-dihydro-5-methoxynaphthalen-1(2H)-one] | > 100 µM | 37.3 ± 3.13 µM | > 50 µM | > 50 µM | 
3 | > 100 µM | 20.1 ± 2.43 µM | 5.74 ± 3.2 µM | > 39.2 µM | 43.6 ± 4.12 µM | > 50 µM | > 50 µM | > 50 µM | 152 to 154 °C | COc1ccc2c(c1)CC/C(=C\c1cccnc1Oc1ccc(F)cc1)C2=O [Compound 14, (E)-2-{[2-(4-Fluorophenoxy)pyridin-3-yl]methylene}-3,4-dihydro-6-methoxynaphthalen-1(2H)-one] | > 100 µM | 41.3 ± 5.67 µM | > 50 µM | > 50 µM | times higher cytotoxicity against K562 than K562-TAX (K562): 6.8 times; IC50 (K562-TAX): 39.2 ± 9.37 µM
4 | > 100 µM | 9.13 ± 1.38 µM | 27.7 ± 2.49 µM | 19.7 ± 3.78 µM | 29.1 ± 5 µM | 30.5 ± 2.34 µM | 23.9 ± 2.5 µM | 26.3 ± 4.61 µM | 150 to 152 °C | COc1ccc2c(c1)C(=O)/C(=C/c1cccnc1Oc1ccc(F)cc1)CC2 [Compound 15, (E)-2-{[2-(4-Fluorophenoxy)pyridin-3-yl]methylene}-3,4-dihydro-7-methoxynaphthalen-1(2H)-one] | > 100 µM | 23.1 ± 4.38 µM | > 50 µM | > 50 µM | 
5 | > 100 µM | 8.7 ± 2.19 µM | 23.9 ± 2.28 µM | 25.6 ± 5.37 µM | 39.7 ± 1.89 µM | 29.9 ± 4.59 µM | 31.5 ± 62.7 µM | 38 ± 4.47 µM | 138 to 140 °C | O=C1/C(=C/c2cccnc2Oc2ccc(Br)cc2)CCc2ccccc21 [Compound 16, (E)-2-{[2-(4-Bromophenoxy)pyridin-3-yl]methylene}-3,4-dihydronaphthalen-1(2H)-one] | > 100 µM | 34.3 ± 3.61 µM | > 50 µM | > 50 µM | 
6 | > 100 µM | 12.9 ± 2.07 µM | 32 ± 3.72 µM | 31.4 ± 6.59 µM | > 50 µM | > 50 µM | > 50 µM | > 50 µM | 158 to 160 °C | COc1cccc2c1CC/C(=C\c1cccnc1Oc1ccc(Br)cc1)C2=O [Compound 17, (E)-2-{[2-(4-Bromophenoxy)pyridin-3-yl]methylene}-3,4-dihydro-5-methoxynaphthalen-1(2H)-one] | > 100 µM | 31.7 ± 5.86 µM | > 50 µM | > 50 µM | 
7 | > 100 µM | 5.97 ± 0.67 µM | 3.91 to 4.33 µM | 17.6 ± 7.09 µM | 9.64 to 9.74 µM | > 50 µM | > 50 µM | 7.27 ± 0.68 µM |  | COc1ccc2c(c1)CC/C(=C\c1cccnc1Oc1ccc(Br)cc1)C2=O [Compound 18, (E)-2-{[2-(4-Bromophenoxy)pyridin-3-yl]methylene}-3,4-dihydro-6-methoxynaphthalen-1(2H)-one] | > 100 µM | 25.7 ± 5.71 µM | > 50 µM | > 50 µM | IC50 (K562): 4.33 ± 0.19 µM; times higher cytotoxicity against K562 than K562-TAX (K562): 4.1 times; IC50 (A549): 9.64 ± 1.71 µM; AV+/IP+ (late apoptosis) (K562 cell line; K562, 5 µM): 2.84%; AV+/IP- (early apoptosis) (K562 cell line; K562, 5 µM): 22.70%; AV-/IP+ (necrosis) (K562 cell line; K562, 5 µM): 0.89%; AV+/IP+ (late apoptosis) (K562 cell line; K562, 10 µM): 89.50%; AV+/IP- (early apoptosis) (K562 cell line; K562, 10 µM): 8.69%; AV-/IP+ (necrosis) (K562 cell line; K562, 10 µM): 1.12%; annexin V-FITC expression (K562 cell line; K562, 10 µM): higher than 50%; AV+/IP+ (late apoptosis) (A549 cell line; A549, 10 µM): 3.28%; AV+/IP- (early apoptosis) (A549 cell line; A549, 10 µM): 11.10%; AV-/IP+ (necrosis) (A549 cell line; A549, 10 µM): 3.06%; AV+/IP+ (late apoptosis) (A549 cell line; A549, 25 µM): 21.10%; AV+/IP- (early apoptosis) (A549 cell line; A549, 25 µM): 40.10%; AV-/IP+ (necrosis) (A549 cell line; A549, 25 µM): 3.12%
8 | > 100 µM | 12.9 ± 2.43 µM | 43 ± 5.1 µM | 4.17 ± 2.93 µM | > 50 µM | > 50 µM | > 50 µM | > 50 µM | 144 to 146 °C | COc1ccc2c(c1)C(=O)/C(=C/c1cccnc1Oc1ccc(Br)cc1)CC2 [Compound 19, (E)-2-{[2-(4-Bromophenoxy)pyridin-3-yl]methylene}-3,4-dihydro-7-methoxynaphthalen-1(2H)-one] | ≤ 60 µM | 20 ± 3.99 µM | > 50 µM | > 50 µM | EC50 ([1]; promastigotes, 72 h): 44.6 ± 1.15 µM
9 |  |  |  |  |  |  |  |  |  | COc1cccc2c1C(=O)c1c(O)c3c(c(O)c1C2=O)C[C@@](O)(C(=O)CO)C[C@@H]3O[C@H]1C[C@H](N)[C@H](O)[C@H](C)O1 [Dox, doxorubicin, reference compound] |  |  |  |  | AV+/IP+ (late apoptosis) (K562 cell line; K562, 1 µM): 29.80%; AV+/IP- (early apoptosis) (K562 cell line; K562, 1 µM): 29.40%; AV-/IP+ (necrosis) (K562 cell line; K562, 1 µM): 19.20%; AV+/IP+ (late apoptosis) (A549 cell line; A549, 1 µM): 33.50%; AV+/IP- (early apoptosis) (A549 cell line; A549, 1 µM): 8.33%; AV-/IP+ (necrosis) (A549 cell line; A549, 1 µM): 29.30%
10 |  |  |  |  |  |  |  |  |  | O=c1c(O)c(-c2ccc(O)c(O)c2)oc2cc(O)cc(O)c12 [QC, quercetin, reference compound] |  |  |  |  | AV+/IP+ (late apoptosis) (K562 cell line; K562, 50 µM): 6.25%; AV+/IP- (early apoptosis) (K562 cell line; K562, 50 µM): 34.30%; AV-/IP+ (necrosis) (K562 cell line; K562, 50 µM): 1.57%; AV+/IP+ (late apoptosis) (A549 cell line; A549, 50 µM): 21.70%; AV+/IP- (early apoptosis) (A549 cell line; A549, 50 µM): 26.10%; AV-/IP+ (necrosis) (A549 cell line; A549, 50 µM): 5.60%
